Assay results from PubChem BioAssay AID2060336 (Molecular Pharmacology Branch, DTP, NCI, 2025).

Tested on: 958767-090-R-J1-PDC spheroid growth
Test: Anticancer human tumor 958767-090-R-J1-PDC patient-derived head and neck squamous carcinoma cell line growth inhibition [IpAb]
Conditions: spheroids with HUVEC and MSC; for IC50: curve of first compound; for viability, T/C: stronger effect = lower value
From the text: Combinatorial screen of targeted agents with ipatasertib and abemaciclib in multi-cell type tumor spheroids
A high-throughput screen of multi-cell type tumor spheroids was designed to identify active combinations of targeted small molecules and ipatasertib or abemaciclib. Complex spheroids include a stromal component modeled by human endothelial cells (HUVEC) and fibroblasts modeled by human mesenchymal stem cells (MSCs). The concentration ranges selected for each drug and investigational agent were based upon clinically achievable concentrations if the clinical Cmax of the agent was known.
Compounds. The drugs and investigational agents: ipatasertib (NSC767898), abemaciclib(NSC768073), selumetinib (NSC741078), trametinib (758246), adavosertib (NSC754352), everolimus (NSC733504), sapanisertib (NSC764658), vemurafenib (NSC761431), venetoclax (NSC766270), copanlisib (NSC809693), apelisib (NSC765974), palbociblib (NSC758247), vemurafenib (NSC761431), dabrafenib (NSC764134), ravoxertinib (NSC781343), BMS-387032 (NSC767048), sotorasib (NSC818433), talazoparib (NSC767125) and afursertib (NSC778305), were obtained from the National Cancer Institute (NCI) Developmental Therapeutics Program Chemical Repository. The FDA-approved anticancer drug set is available from the NCI Developmental Therapeutics Program. […] The stock solutions were prepared in dimethyl sulfoxide (DMSO, Sigma-Aldrich, St. Louis, MO, cat. D2650) at 800-fold the tested concentration and stored at -70 degrees C prior to their use. All drugs and investigational agents were tested over a range starting from a high concentration at or near the clinical Cmax and decreasing in half-log increments. If the clinical Cmax for an agent had not been determined, the highest concentration tested was 10 microM.
NCI60 Cell Culture. NCI60 cell lines were obtained from the NCI Developmental Therapeutics Program Tumor Repository. For each lot of cells, the Repository performed Applied Biosystems AmpFLSTR Identifiler testing with PCR amplification to confirm consistency with the published Identifier STR profile for each cell line. Cells were kept in continuous culture for no more than 20 passages. The optimal seeding densities for each of the cell lines at each time point assessed were determined prior to performing the concentration response studies. Briefly, the NCI60 human tumor lines were grown as monolayers in RPMI 1640 medium supplemented with 10% FBS and 2 mmol/L L-glutamine.
An additional 9 lines were from the NCI60 cell line panel including MDA-MB-231 breast carcinoma, MDA-MB-468 breast carcinoma, MCF7 breast carcinoma, Hs578T breast carcinoma, MALME-3M melanoma, SK-MEL-2 melanoma, SK-OV-3 ovarian carcinoma, DU-145 prostate carcinoma, PC-3 prostate carcinoma, all cell lines along with major genetic alterations are listed on Table 2. Pooled donor human umbilical vein endothelial cells (HUVEC, Lonza, cat. CC-2519) and human mesenchymal stem cells (hMSC, Lonza, cat. PT-2501) were purchased from Lonza (Walkersville, MD).
PDMR cell lines were grown in complete medium (DC medium): Dulbecco's modified Eagle's medium (DMEM)/F12 supplemented with 5% fetal bovine serum (FBS), 2 mM L-glutamine, 100 U/mL penicillin and 100 µg/ml streptomycin, 0.4 µg/ml hydrocortisone, 10 ng/ml epidermal growth factor (EGF) recombinant human protein, 24 µg/mL adenine, and 0.1 mg/mL primocin. During culture from frozen stock vials, PDMR cells were cultured in the same medium containing 10 µM Y-27632 (see Table 3). The PDCs were cultured in complete DMEM/F12 media without 10 microM Y-27632 dihydrochloride for at least two passages prior to the screen. The pooled donor HUVEC and hMSC were cultured in endothelial cell growth medium 2 (PromoCell, Heidelberg, Germany, cat. C-22011) and mesenchymal stem cell growth medium 2 (PromoCell, cat. C-28009), respectively. For all experiments, HUVEC and hMSC were used at passages </=5.
[…]

[1] = second compound 0.1 µM, first compound 0.0316 µM
[2] = second compound 0.1 µM, first compound 0.1 µM
[3] = second compound 0.1 µM, first compound 0.316 µM
[4] = second compound 0.1 µM, first compound 1 µM
[5] = second compound 0.1 µM, first compound 3.16 µM
[6] = second compound 0.1 µM, first compound 10 µM
[7] = second compound 0.316 µM, first compound 0.0316 µM
[8] = second compound 0.316 µM, first compound 0.1 µM
[9] = second compound 0.316 µM, first compound 0.316 µM
[10] = second compound 0.316 µM, first compound 1 µM
[11] = second compound 0.316 µM, first compound 3.16 µM
[12] = second compound 0.316 µM, first compound 10 µM
[13] = second compound 1 µM, first compound 0.0316 µM
[14] = second compound 1 µM, first compound 0.1 µM
[15] = second compound 1 µM, first compound 0.316 µM
[16] = second compound 1 µM, first compound 1 µM
[17] = second compound 1 µM, first compound 3.16 µM
[18] = second compound 1 µM, first compound 10 µM
[19] = second compound 3.16 µM, first compound 0.0316 µM
[20] = second compound 3.16 µM, first compound 0.1 µM
[21] = second compound 3.16 µM, first compound 0.316 µM
[22] = second compound 3.16 µM, first compound 1 µM
[23] = second compound 10 µM, first compound 0.0316 µM
[24] = second compound 10 µM, first compound 0.1 µM
[25] = second compound 10 µM, first compound 0.316 µM
[26] = second compound 10 µM, first compound 1 µM
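Note: spheroids exposed to agents for 7 days.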
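Throughout, for viability, T/C: 100% = DMSO vehicle control wells.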

Row | SMILES | IC50 (second compound 0.1 µM) | IC50 (second compound 0.316 µM) | IC50 (second compound 1 µM) | viability, T/C [1] | viability, T/C [2] | viability, T/C [3] | viability, T/C [4] | viability, T/C [5] | viability, T/C [6] | viability, T/C [7] | viability, T/C [8] | viability, T/C [9] | viability, T/C [10] | viability, T/C [11] | viability, T/C [12] | viability, T/C [13] | viability, T/C [14] | viability, T/C [15] | viability, T/C [16] | viability, T/C [17] | further results
1 | Cn1nccc1Nc1nccc(-c2ccn(C(CO)c3ccc(Cl)c(F)c3)c(=O)c2)n1 (stereo not given) + CCN1CCN(Cc2ccc(Nc3ncc(F)c(-c4cc(F)c5nc(C)n(C(C)C)c5c4)n3)nc2)CC1 | 441 nM | 254 nM | 1020 nM | 63.3% | 50.6% | 51.5% | 46.4% | 36.8% | 18.6% | 61.4% | 50.5% | 46.8% | 47.7% | 31.6% | 23.2% | 71.1% | 60.2% | 60.2% | 50.7% | 38.8% | IC50 (second compound 0.01 µM): 1580 nM; IC50 (second compound 0.0316 µM): 1610 nM; viability, T/C (second compound 0.01 µM, first compound 0.0316 µM): 72.3%; viability, T/C (second compound 0.01 µM, first compound 0.1 µM): 62.5%; viability, T/C (second compound 0.01 µM, first compound 0.316 µM): 61.3%; viability, T/C (second compound 0.01 µM, first compound 1 µM): 55.5%; viability, T/C (second compound 0.01 µM, first compound 3.16 µM): 43.8%; viability, T/C (second compound 0.01 µM, first compound 10 µM): 24.9%; viability, T/C (second compound 0.0316 µM, first compound 0.0316 µM): 69.3%; viability, T/C (second compound 0.0316 µM, first compound 0.1 µM): 60.3%; viability, T/C (second compound 0.0316 µM, first compound 0.316 µM): 53%; viability, T/C (second compound 0.0316 µM, first compound 1 µM): 55.2%; viability, T/C (second compound 0.0316 µM, first compound 3.16 µM): 46.8%; viability, T/C (second compound 0.0316 µM, first compound 10 µM): 17.1%; viability, T/C [18]: 21.7%
2 | Cn1ncc(Cl)c1-c1cc(C(=O)NC(CN)Cc2cccc(F)c2)sc1Cl (stereo not given) + CC(C)NCC(C(=O)N1CCN(c2ncnc3c2C(C)CC3O)CC1)c1ccc(Cl)cc1 | 1210 nM | 952 nM | 1020 nM | 70.3% | 70.3% | 54.5% | 59.3% | 32.8% | 0.14% | 57.5% | 62.6% | 52.2% | 47.5% | 37.9% | 0.46% | 54.6% | 50.8% | 55.4% | 50% | 31.6% | IC50 (second compound 3.16 µM): 113 nM; IC50 (second compound 10 µM): < 31.6 nM; viability, T/C [18]: 0.13%; viability, T/C [19]: 53.1%; viability, T/C [20]: 47.6%; viability, T/C [21]: 48.4%; viability, T/C [22]: 45.7%; viability, T/C (second compound 3.16 µM, first compound 3.16 µM): 32.3%; viability, T/C (second compound 3.16 µM, first compound 10 µM): 0.64%; viability, T/C [23]: 42.5%; viability, T/C [24]: 36.3%; viability, T/C [25]: 39.8%; viability, T/C [26]: 42.5%; viability, T/C (second compound 10 µM, first compound 3.16 µM): 22.2%; viability, T/C (second compound 10 µM, first compound 10 µM): 0.81%
3 | COc1c(OCCCN2CCOCC2)ccc2c3n(c(=NC(=O)c4cnc(N)nc4)nc12)CCN3 + CC(C)NCC(C(=O)N1CCN(c2ncnc3c2C(C)CC3O)CC1)c1ccc(Cl)cc1 | 14.1 nM | 4.43 nM | < 3.16 nM | 36.6% | 22.6% | 9.18% | 4.85% |  |  | 25.7% | 15.6% | 6.21% | 3.9% |  |  | 26.6% | 15.5% | 5.63% | 3.82% |  | IC50 (second compound 3.16 µM): < 3.16 nM; IC50 (second compound 10 µM): < 3.16 nM; viability, T/C (second compound 0.1 µM, first compound 0.00316 µM): 78%; viability, T/C (second compound 0.1 µM, first compound 0.01 µM): 55.2%; viability, T/C (second compound 0.316 µM, first compound 0.00316 µM): 52.9%; viability, T/C (second compound 0.316 µM, first compound 0.01 µM): 43.2%; viability, T/C (second compound 1 µM, first compound 0.00316 µM): 42.1%; viability, T/C (second compound 1 µM, first compound 0.01 µM): 32.6%; viability, T/C (second compound 3.16 µM, first compound 0.00316 µM): 41.7%; viability, T/C (second compound 3.16 µM, first compound 0.01 µM): 24.8%; viability, T/C [19]: 20.9%; viability, T/C [20]: 11.5%; viability, T/C [21]: 6.46%; viability, T/C [22]: 3.61%; viability, T/C (second compound 10 µM, first compound 0.00316 µM): 28.3%; viability, T/C (second compound 10 µM, first compound 0.01 µM): 19.8%; viability, T/C [23]: 14.1%; viability, T/C [24]: 9.67%; viability, T/C [25]: 4.23%; viability, T/C [26]: 3.22%
